The record followed here is PMC11436758, “Computer-aided drug design to generate a unique antibiotic family” (Nature Communications, 2024).

In general, IC50 refers to the point on the concentration scale where inhibition reaches its midpoint. Low readings indicate higher potency, high ones lower potency. One may read the MIC as the lowest concentration found to suppress growth. A higher MIC goes with a need for much substance.

Test [1] deals with AcpS (Escherichia coli, UniProt P24224). In words: AcpS enzyme activity inhibition (IC50) by DNM compounds, [3H]acetyl-CoA / apo-ACP assay. It counts as biochemical. Conditions: three individual replicates. The text has this:
The acpP gene encoding ACP was amplified from E. coli genomic DNA and subcloned into the pGEX4T-1 vector. This construct drives the expression of glutathione S-transferase (GST) fused to the ACP open reading frame through a linker containing a consensus sequence for thrombin cleavage. The identity and veracity of acpP was verified by DNA sequencing. BL21 E. coli cells expressing GST-ACP were suspended in ice-cold phosphate buffer saline (PBS) and lysed by sonication. The lysate was made 1% Triton X-100 and rested on ice for 30 min with occasional mixing. A clear supernatant was isolated by centrifugation at 46,000 × g for 30 min, brought to 10 mM MgCl2 and 2 mM MnCl2 and incubated at room temperature for 1 h with occasional mixing. The supplementation of the lysate to 10 mM MgCl2 and 2 mM MnCl2 favors the activity of endogenous ACP phosphodiesterase (acpH) enriching the apo- fraction of GST-ACP. GST-ACP was affinity purified upon binding to glutathione-sepharose. The ACP moiety was eluted from the affinity resin by in-column thrombin digestion. Apo-ACP was separated from holo-ACP and acylated forms of ACP by ion-exchange chromatography on a Mono-Q 5/50 GL at pH 6.1 operated from an AKTA Pure 25 platform. The purity of the apo-ACP preparation was assessed by 20% PAGE on native gels containing 0.5 M urea.
The acpS gene was amplified from S. aureus and E. coli genomic DNA and inserted into a pET23b vector using standard recombinant DNA methodology such that the protein product would result in addition of a C-terminal 6x-His tag in frame with the AcpS open reading frames. The DNA sequences inserted in the vector were sequenced and found to be identical to the known E. coli and S. aureus acpS open reading frames. Recombinant His-Tagged AcpS expression was induced by IPTG addition and overnight culture. Cell lysate was obtained by sequential aspiration through 16, 18 and 21 G needles in a buffer of 50 mM Tris-HCl (pH 8.5), 10 mM MgCl2, 2 mM DTT, 5% glycerol, and further adjusted to pH 8.1 with MES. […] In a typical AcpS enzyme activity assay, 57 µM [^3H]acetyl-CoA, 2 µg apo-ACP, 10 mM MgCl2, 5 mM DTT, 50 mM Na phosphate (pH 7.0), and AcpS in a final volume of 10 µL were incubated at room temperature in a 1.5 mL microcentrifuge tube. At 5, 10, 15, and 20 min 2 µL of reaction were added to 750 µl 10% TCA on ice. Bovine serum albumin (BSA; 20 µl of a 25 mg/mL solution) was then added to facilitate precipitation of radiolabeled protein. The samples were centrifuged at 12,000 × g for 5 min. Supernatants were removed, and the pellets were rinsed twice with 750 µl of 10% trichloroacetic acid. Pellets were resuspended in 50 µl of formic acid and transferred to scintillation vials. 2 mL of scintillation fluid was added, and the amount of [^3H]-labeled holo-ACP formed was quantified by liquid scintillation counting. The enzymatic reaction proceeded in a linear manner depending on time (10–40 min) and enzyme concentration (1–5 nM). Routinely, each data point was determined at least by triplicate.

For test [2], the system named is MRSA (ATCC 33591). Description: MIC, CLSI broth microdilution. The conditions noted are these: three individual replicates. The test is classed as cell-based, S. aureus. The method, then: (§1) The medium employed for the assay was Mueller Hinton II Broth (MHB II; Becton-Dickinson, Sparks, MD, USA). Agar plates used for the organisms were trypticase soy agar plus 5% sheep blood (BD; Sparks, MD, USA). MIC assay plates were prepared using the CLSI broth microdilution procedure. Automated liquid handlers (Multidrop 384, Biomek 2000 and Biomek FX) were used to conduct serial dilutions and liquid transfers. A standardized inoculum of each organism was prepared per CLSI methods. Suspensions were prepared to equal a 0.5 McFarland standard, followed by a 1:20 dilution in test media. The inocula were dispensed into sterile reservoirs divided by length (Beckman Colter) and the Biomek 2000 was used to inoculate the plates. Daughter plates were placed on the Biomek 2000 work surface in reverse orientation so that inoculation took place from low to high drug concentration. The Biomek 2000 delivered 10 μL of the diluted suspension into each well. These inoculations yielded a final cell concentration in the daughter plates of ~5 × 10^5 colony-forming units/mL in each well. The wells of the daughter plates ultimately contained 185 μL of broth, 5 μL of drug solution, and 10 μL of bacterial inoculum. Plates were covered with a sterile lid on the top plate, placed in plastic bags, and incubated at 35 °C for ~18 h. The microplates were viewed from the bottom using a plate viewer and the MIC was read. The MIC was recorded as the lowest concentration of drug that inhibited visible growth of the organism. Uninoculated solubility control plates were also observed for evidence of drug precipitation.
For orientation: Dilution methods test growth across graded concentrations, often in twofold steps.

Test [3] concerns MRSA (ATCC 33591). Description: Rabbit ischemic ear wound model of infection by MRSA, topical treatment. It counts as in vivo, New Zealand White rabbits. The conditions noted are these: for reduction in bacterial survival as compared to vehicle control: quantitative microbiology at day 14, topical; for wound closure: topical for 14 days, versus vehicle control. The method, then: New Zealand White rabbits from Charles River were employed for this study. Both male and female rabbits were used; sample size prevented disaggregation of data by sex. Investigators were blinded to group allocation, data collection, and data analysis. Food and water were given ad libidum and animals were acclimatized for 7 days with photoperiods of alternating 12 h light and dark at 21 °C in relative humidity of 40–50%. The formulation for delivery of DNM compounds was Glaxal base (WellSpring Pharmaceutical Canada Corp., Oakville, Canada). Formulation was performed by dissolving compound in Glaxal base to give final concentrations of 1% or 2% DNM compound (w/v). The analgesic (Buprenex 0.02 mg/kg sc) and anesthesia (isoflurane (0.5–5% with oxygen carrier 0.5–2 L/min) were used as required during procedures. An ischemia wound healing model was conducted surgically. Each wound was inoculated with 50 μl of 2 × 10^7 CFU/mL MRSA (ATCC #33591) and dressed. After 1 day, wounds were treated with either 50 μl control cream containing vehicle or 50 μl cream containing compound daily. Wounds were assessed and observations recorded using the Draize scoring system. Digital photographs of each wound were obtained and documented.

Test [4] has as its system S. aureus (MRSA). Description: MIC, clinical and laboratory strains. It counts as cell-based. The method, then: as §1, with “organism.” for “organism. Uninoculated solubility control plates were also observed for evidence of drug precipitation.”
For test [5], the system named is S. aureus (MSSA). Description: MIC, clinical and laboratory strains. It counts as cell-based. The method, then:
as §1, with “organism.” for “organism. Uninoculated solubility control plates were also observed for evidence of drug precipitation.”

Test [6] concerns S. aureus (VISA). In words: MIC, clinical and laboratory strains. The test is classed as cell-based. Here is the method: as §1, with “organism.” for “organism. Uninoculated solubility control plates were also observed for evidence of drug precipitation.”
Test [7] deals with 102 ATCC strains and clinical isolates of Staphylococcus, Streptomyces, and Enterococcus. In words: MIC panel summary over all strains. Conditions: of 102 strains. It counts as cell-based. Here is the method: We also sought to determine if DNM0547 was bacteriostatic or bactericidal. Time kill experiments were carried out using increasing doses of DNM0547 against two different strains of MRSA.
as §1, with “organism.” for “organism. Uninoculated solubility control plates were also observed for evidence of drug precipitation.”

In brackets after ≈: the same amount, converted by molar mass.

AcpS, sequence (P24224 2-126): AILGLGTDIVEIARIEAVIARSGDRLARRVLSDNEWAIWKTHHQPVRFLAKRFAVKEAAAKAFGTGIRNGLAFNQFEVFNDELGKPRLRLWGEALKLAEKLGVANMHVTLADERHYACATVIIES

In test [1], `Cc1cc(Cl)ccc1-c1sc(-c2nnn[nH]2)c(C)c1-c1ccc(Cl)cc1C` [DNM0614] registered an IC50 of 13 µM. In test [2], this compound yielded an MIC of 1 µg/mL (≈ 2.41 µM). In test [3], the “reduction in bacterial survival as compared to vehicle control” value was over 99% and the wound closure result was “significantly improved wound closure”.
For `Clc1ccc(-c2cc(-c3nnn[nH]3)sc2-c2ccc(Cl)cc2)cc1` [DNM0487] the same measures were 1 µM, 2 µg/mL (≈ 5.36 µM), over 99% and “significantly improved wound closure”.
For the compound `CC[C@H]1OC(=O)[C@H](C)[C@@H](O[C@H]2C[C@@](C)(OC)[C@@H](O)[C@H](C)O2)[C@H](C)[C@@H](O[C@@H]2O[C@H](C)C[C@H](N(C)C)[C@H]2O)[C@](C)(O)C[C@@H](C)C(=O)[C@H](C)[C@@H](O)[C@]1(C)O` [erythromycin], the minimum inhibitory concentration (MIC) in test [4] (S. aureus (MRSA) 2167), in test [4] (S. aureus (MRSA) 2168), in test [4] (S. aureus (MRSA) 2169), in test [4] (S. aureus (MRSA) 2170), in test [4] (S. aureus (MRSA) 2171) and in test [4] (S. aureus (MRSA) 2293) was over 16 µg/mL in each case. The MIC in test [4] (S. aureus (MRSA) 2294) is over 16 µg/mL; in test [4] (S. aureus (MRSA) 2295), over 16 µg/mL; in test [4] (S. aureus (MRSA) 2296), 0.5 µg/mL (≈ 0.681 µM); in test [4] (S. aureus (MRSA) 2297) it was over 16 µg/mL; in test [4] (S. aureus (MRSA) 3880) it was over 16 µg/mL; in test [4] (S. aureus (MRSA) 5373) it was over 16 µg/mL. For the same compound, the MIC in test [4] (S. aureus (MRSA) 5666), in test [4] (S. aureus (MRSA) 5702), in test [4] (S. aureus (MRSA) 5999), in test [4] (S. aureus (MRSA) 6165), in test [4] (S. aureus (MRSA) 6169) and in test [4] (S. aureus (MRSA) 6174) was over 16 µg/mL throughout. Moreover, the MIC in test [4] (S. aureus (MRSA) 6311) was over 16 µg/mL; in test [4] (S. aureus (MRSA) 6312), over 16 µg/mL; in test [4] (S. aureus (MRSA) 6313), over 16 µg/mL; in test [4] (S. aureus (MRSA) 6315), over 16 µg/mL; in test [4] (S. aureus (MRSA) 6320) it was over 16 µg/mL; in test [4] (S. aureus (MRSA) 6498) it was 0.5 µg/mL (≈ 0.681 µM). Besides, the MIC was over 16 µg/mL in test [4] (S. aureus (MRSA) 6501); over 16 µg/mL in test [4] (S. aureus (MRSA) 6505); 0.5 µg/mL (≈ 0.681 µM) in test [4] (S. aureus (MRSA) 6506); over 16 µg/mL in test [4] (S. aureus (MRSA) NRS382/2119); over 16 µg/mL in test [4] (S. aureus (MRSA) NRS383/2120); over 16 µg/mL in test [4] (S. aureus (MRSA) NRS384/2011). Further, the MIC in test [5] (S. aureus (MSSA) 2127) is 0.12 µg/mL (≈ 0.164 µM); in test [5] (S. aureus (MSSA) 6167), over 16 µg/mL; in test [5] (S. aureus (MSSA) 6168) it was 0.25 µg/mL (≈ 0.341 µM); in test [5] (S. aureus (MSSA) 6170) it was 0.5 µg/mL (≈ 0.681 µM); in test [5] (S. aureus (MSSA) 6316) it was over 16 µg/mL; in test [5] (S. aureus (MSSA) 6317), 0.5 µg/mL (≈ 0.681 µM). The MIC is over 16 µg/mL in test [5] (S. aureus (MSSA) 6318); over 16 µg/mL in test [5] (S. aureus (MSSA) 6499); 8 µg/mL (≈ 10.9 µM) in test [5] (S. aureus (MSSA) 6500); 0.25 µg/mL (≈ 0.341 µM) in test [5] (S. aureus (MSSA) 6502); 0.25 µg/mL (≈ 0.341 µM) in test [6] (S. aureus (VISA) 1724); over 16 µg/mL in test [6] (S. aureus (VISA) 2012). For the same compound, the MIC in test [6] (S. aureus (VISA) 2013) is over 16 µg/mL; in test [6] (S. aureus (VISA) 2014) it was over 16 µg/mL; in test [6] (S. aureus (VISA) 2015), over 16 µg/mL; in test [6] (S. aureus (VISA) 2016) it was over 16 µg/mL; in test [6] (S. aureus (VISA) 2017) it was 0.25 µg/mL (≈ 0.341 µM); in test [6] (S. aureus (VISA) 2018) it was over 16 µg/mL. In addition, the minimal inhibitory concentration (MIC) in test [6] (S. aureus (VISA) 2019), in test [6] (S. aureus (VISA) 2123) and in test [6] (S. aureus (VISA) NRS1/1723) was over 16 µg/mL throughout. For the same compound, in test [7], the “number of strains tested with MIC not ≤ 2 μg/mL” value turned out to be 76.
